Measurements: patent publication US20180200331A1, “BST-2 AS A THERAPEUTIC TARGET AND DIAGNOSTIC MARKER FOR BREAST CANCER GROWTH AND METASTASIS” (University of Iowa Research Foundation, priority 2015, published 2018)

Key:
4T1 cells [1] = assay: MTT assay, 4T1; assay type: cell-based, mouse
Description: (§1) A total of 5,000 cells stably expressing sh137, sh413, or shControl were plated in 96-well plates. Cells were then incubated with 5 mg/ml MTT reagent for 3.5 hours followed by addition of MTT solvent (0.1% NP-40 and 4 mM HCl in isopropanol) and rocking for 15 minutes. Absorbance at 590 nm was read using a Tecan Infinite M200 Pro plate reader.

E0771 cells [2] = assay: Orthotopic implantation of E0771 cells in C57BL/6 mice; assay type: in vivo
Description: Five-week-old C57BL/6NCr and BALB/cAnNCr female mice were used. Mice were sacrificed when they became moribund. Tumor volume (TV) was calculated as: TV=0.5(length*width2). Tumor latency was calculated as the number of tumor-free injected mice/number of injected mice×100. To assess morbidity, the following clinical score ranking was used: (0) no abnormal clinical signs, (1) ruffled fur but lively, (2) ruffled fur, activity level slowing, sick, (3) ruffled fur, eyes squeezed shut, hunched, hardly moving, very sick, (4) moribund and (5) dead. Experiments involving mice were approved by the University of Iowa Animal Care and Use Committee (IACUC).
Prior to imaging, mice were anesthetized, weighed and injected intraperitoneally with D-luciferin. Mice were imaged using the Xenogen IVIS three dimensional optical imaging system (Caliper Life Sciences, Hopkinton, Mass., USA). Luciferase was quantified with Living Image Software (Caliper Life Sciences).

E0771 cells [3] = assay: MTT assay, E0771; assay type: cell-based, mouse
Description: as §1

E0771 and 4T1 cells = assay: BrdU assay; assay type: cell-based, mouse
Description: A total of 5,000 cells were plated in 96-well plates for 24 hours. Bromodeoxyuridine or 5-bromo-2′-deoxyuridine (BrdU) (Calbiochem, Billerica, Mass., USA) assay was carried out according to the manufacturer's instructions. Absorbance at 450 nm was read using a Tecan Infinite plate reader. In parallel, 150,000 cells were plated in 24-well plates for 24 hours. Cells were incubated with BrdU label (1:2000) for 20 hours, treated with a fixative/denaturing solution (30 minutes) and incubated with an anti-BrdU antibody (1:1000) and rat anti-mouse BST-2 antibody (1:200, eBioscience) for 1 hour at room temperature. Cells were washed and incubated with Alexa Fluor 594 anti-rat (Invitrogen, Waltham, Mass., USA) and Alexa Fluor 488 anti-mouse (Invitrogen) secondary antibodies for 30 minutes at room temperature. Cells were stained with 4′,6-diamidino-2-phenylindole (DAPI)-containing Vectashield (Vector Laboratories, Burlingame, Calif., USA) and imaged using a Zeiss 710 confocal microscope (Carl Zeiss, Oberkochen, Germany). Images were processed using Image J software. BrdU label, fixative/denaturing solution, and anti-BrdU antibody were from BrdU (Calbiochem) assay.

BST-2 = assay: shRNA knockdown of BST-2 in E0771 and 4T1 cells; assay type: cell-based, mouse; settings: E0771 and 4T1 cells stably transduced
From the text: E0771 and 4T1 cells were stably transduced with a construct expressing LV-CMV-firefly luciferase or an empty vector construct using lipofectamine following the manufacturer's instructions (Life Technologies, Carlsbad, Calif., USA). Stable transfectants were then transduced with lentiviral particles carrying BST-2-targeting sh137: CCGGC […] (SEQ ID NO:3); sh413: […] TTCTCAAGCTTTTTG (SEQ ID NO:4); or a non-targeting shControl: […] (SEQ ID NO:5) using a previously described protocol. Stable cells were generated by selection with the appropriate drug. The short hairpin RNA (shRNA) constructs were purchased from Sigma-Aldrich (St Louis, Mo., USA) (SHCLND-NM_198095) and lentiviral particles were generated at the Gene Transfer Vector Core at the University of Iowa.
Cell monolayers were washed with PBS and treated with Versene (Life Technologies). […] Stained cells were quantified using a FACSCalibur flow cytometer (BD Biosciences, San Jose, Calif., USA). […] Fluorescence-activated cell sorting (FACS) data were analyzed by Flowjo software (TreeStar, Ashland, Oreg., USA). […]
Western blots were performed as previously described. […] Band detection and quantification were carried out with the Odyssey Infrared Imaging System (LI-COR Biosciences, Lincoln, Nebr., USA).

4T1 cells [4] = assay: Collagen and fibronectin adhesion assay; assay type: cell-based, mouse; settings: pre-coated plates, 4 hours
Description: Ninety-six-well plates were coated with 50 μg/ml of collagen or fibronectin. Plates were incubated at 37° C. for 2 hours. Nonspecific sites were blocked with 40 μl of 2 mg/ml bovine serum albumin (BSA) in PBS. Wells were washed once with PBS. Cancer cells were labeled with PKH67 Green fluorescent cell linker, following the manufacturer's instructions (Sigma-Aldrich). Labelled cells were added to pre-coated wells (20,000 cells/well) and allowed to adhere for 4 hours. Non-adhered cells were washed off with PBS and plates were read at 485 nm/535 nm (excitation/emission) wavelengths using a Tecan Infinite M200 Pro plate reader (Tecan, Maennedorf, Switzerland). Values are represented as relative fluorescence unit.

For “sh413: BST-2-targeting shRNA (SEQ ID NO:4), delivered by lentiviral particles (CCGGGCTTGAGAATGAAGTCACGAACTCGAGTTCGTGACTTCATTCTCAAGCTTTTTG)”, which “cell viability (MTT)” value (4T1 cells [1]) is on record?
The value was “increased cell viability”.

And the “median overall survival (OS)” value (E0771 cells [2]; Kaplan-Meier)?
Its value is 23 days.

What about the “survival area under the curve (AUC)” value (E0771 cells [2]; Kaplan-Meier) of the same substance?
The value was 2,679.

What about the malignant ascites (E0771 cells [2]; n=10) of the same substance?
Its malignant ascites is “prevented the development of malignant ascites”.

What about the “cell viability (MTT)” value (E0771 cells [3]) of the same substance?
The value was “equally viable”.

And the “cell proliferation (BrdU incorporation)” value (E0771 and 4T1 cells)?
Its value is “no effect on cell proliferation”.

And the BST-2 expression (BST-2)?
Its BST-2 expression is “more efficiently suppressed BST-2”.

What about the adhesion to collagen (4T1 cells [4]) of the same substance?
Its adhesion to collagen is “reduced adhesive capability”.

What about the adhesion to fibronectin (4T1 cells [4]) of the same substance?
The adhesion to fibronectin was “reduced adhesive capability”.
